The target of experiment [1] is T1, human A2A receptors (Homo sapiens, UniProt P29274).
T1 construct: expressed in transfected cells; host or cells: HEK293
The experiment can be described thus: Functional human A2A receptor activity, recombinant HEK293 cells, cAMP (HTRF). In kind it is cell-based. The following applies: read-out: A2A (Category). The method, boiled down: (§1)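 cAMP accumulation, determined by HTRF after a 15 min incubation, served as the functional measure of receptor activity.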
(Time-resolved FRET reads energy transfer from a long-lived donor to a nearby acceptor.)

Experiment [2] concerns the target T2, human A2B receptors (Homo sapiens, UniProt P29275).
T2 construct: expressed in transfected cells; host or cells: HEK293
T2 sequence (P29275 1-332): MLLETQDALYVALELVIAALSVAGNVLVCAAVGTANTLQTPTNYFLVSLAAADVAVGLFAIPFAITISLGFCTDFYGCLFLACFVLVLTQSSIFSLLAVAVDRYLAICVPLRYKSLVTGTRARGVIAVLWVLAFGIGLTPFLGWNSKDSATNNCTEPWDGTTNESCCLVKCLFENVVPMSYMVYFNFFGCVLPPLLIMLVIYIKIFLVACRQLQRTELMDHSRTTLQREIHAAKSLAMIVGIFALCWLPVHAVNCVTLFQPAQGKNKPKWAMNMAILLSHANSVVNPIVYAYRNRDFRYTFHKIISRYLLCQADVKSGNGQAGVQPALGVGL
In words: Functional human A2B receptor activity, recombinant HEK293 cells, cAMP (HTRF). In kind it is cell-based. The following applies: read-out: A2B (Category). The method, boiled down: as §1

T1 sequence (P29274 whole entry): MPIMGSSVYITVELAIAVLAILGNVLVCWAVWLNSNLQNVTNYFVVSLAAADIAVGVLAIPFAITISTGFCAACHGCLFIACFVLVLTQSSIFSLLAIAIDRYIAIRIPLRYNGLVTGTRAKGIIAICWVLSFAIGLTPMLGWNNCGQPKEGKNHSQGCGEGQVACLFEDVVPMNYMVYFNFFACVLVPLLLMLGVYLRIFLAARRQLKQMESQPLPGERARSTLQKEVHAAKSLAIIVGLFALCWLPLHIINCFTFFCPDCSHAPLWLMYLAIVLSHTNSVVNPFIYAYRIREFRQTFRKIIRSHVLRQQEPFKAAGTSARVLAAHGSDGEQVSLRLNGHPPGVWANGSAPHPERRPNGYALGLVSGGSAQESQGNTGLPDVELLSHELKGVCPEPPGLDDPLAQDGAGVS

With `O=C(c1cc2c(cn1)c(-c1cnc3c(F)cc(F)cn13)nn2CC(F)(F)F)N1CC2CCC(C1)C2O` (stereo not drawn) [Compound 170, [3-(6,8-Difluoro-imidazo[1,2-a]pyridin-3-yl)-1-(2,2,2-trifluoro-ethyl)-1H-pyrazolo[4,3-c]pyridin-6-yl]-(8-exo-hydroxy-3-aza-bicyclo[3.2.1]oct-3-yl)-methanone], the values for the IC50 in experiment [1] and in experiment [2] were under 100 nM and under 1000 nM, respectively.
The like results for `CC1(O)C2CCC1CN(C(=O)c1cc3c(cn1)c(-c1cnc4c(F)cc(F)cn14)nn3CC(F)(F)F)C2` (stereo not drawn) [Compound 162, [3-(6,8-Difluoro-imidazo[1,2-a]pyridin-3-yl)-1-(2,2,2-trifluoro-ethyl)-1H-pyrazolo[4,3-c]pyridin-6-yl]-(8-endo-hydroxy-8-exo-methyl-3-aza-bicyclo[3.2.1]oct-3-yl)-methanone] were, in that order, under 100 nM and under 1000 nM.
Take `O=C(c1cc2c(cn1)c(-n1cnc3ccccc31)nn2CC(F)(F)F)N1CCCOCC1` [Compound 251, [3-(benzimidazol-1-yl)-1-(2,2,2-trifluoroethyl)pyrazolo[4,3-c]pyridin-6-yl]-(1,4-oxazepan-4-yl)methanone]: the IC50 in experiment [1] is under 100 nM; in experiment [2] it was under 1000 nM.
Consider `CC1CC(O)CCN1C(=O)c1cc2c(cn1)c(-c1cnc3c(F)cc(F)cn13)nn2CC(F)(F)F` (stereo not drawn) [Compound 138, [3-(6,8-Difluoro-imidazo[1,2-a]pyridin-3-yl)-1-(2,2,2-trifluoro-ethyl)-1H-pyrazolo[4,3-c]pyridin-6-yl]-(4-hydroxy-2-methyl-piperidin-1-yl)-methanone], for which the IC50 in experiment [1] and in experiment [2] was under 100 nM in each case.
For `O=C(c1cc2c(cn1)c(-c1cnn3ccncc13)nn2CC(F)(F)F)N1CCCCCC1` [Compound 248, Azepan-1-yl-[3-pyrazolo[1,5-a]pyrazin-3-yl-1-(2,2,2-trifluoro-ethyl)-1H-pyrazolo[4,3-c]pyridin-6-yl]-methanone], the IC50 in experiment [1] is under 100 nM; in experiment [2], under 1000 nM.
On to `O=C(c1cc2c(cn1)c(-c1cnc3c(F)cc(F)cn13)nn2CC(F)(F)F)N1CC2COC(C2)C1` (stereo not drawn) [Compound 199, [3-(6,8-Difluoro-imidazo[1,2-a]pyridin-3-yl)-1-(2,2,2-trifluoro-ethyl)-1H-pyrazolo[4,3-c]pyridin-6-yl]-(6-oxa-3-aza-bicyclo[3.2.1]oct-3-yl)-methanone], for which the IC50 in experiment [1] is under 100 nM; in experiment [2] it was under 1000 nM.
Take `O=C(c1cc2c(cn1)c(-c1coc3ccc(F)cc13)nn2CC(F)(F)F)N1CC2CCC(C1)O2` [Compound 127, [3-(5-fluorobenzofuran-3-yl)-1-(2,2,2-trifluoroethyl)pyrazolo[4,3-c]pyridin-6-yl]-(8-oxa-3-azabicyclo[3.2.1]octan-3-yl)methanone]: the IC50 in experiment [1] and in experiment [2] was under 100 nM throughout.
As for `CC1(O)CCN(C(=O)c2cc3c(cn2)c(-c2cnn4ccccc24)nn3CC(F)(F)F)CC1` [Compound 117, (4-hydroxy-4-methyl-1-piperidyl)-[3-pyrazolo[1,5-a]pyridin-3-yl-1-(2,2,2-trifluoroethyl)pyrazolo[4,3-c]pyridin-6-yl]methanone], the IC50 in experiment [1] was under 100 nM; in experiment [2] it was under 1000 nM.
For `O=C(c1cc2c(cn1)c(-c1cnc3c(F)cc(F)cn13)nn2CC(F)(F)F)N1CCOC2CC21` (stereo not drawn) [Compound 205, [3-(6,8-Difluoro-imidazo[1,2-a]pyridin-3-yl)-1-(2,2,2-trifluoro-ethyl)-1H-pyrazolo[4,3-c]pyridin-6-yl]-(2-oxa-5-aza-bicyclo[4.1.0]hept-5-yl)-methanone], the IC50 in experiment [1] was under 100 nM; in experiment [2] it was under 1000 nM.
Turning to `O=C(c1cc2c(cn1)c(-c1cnc3cnccn13)nn2CC(F)(F)F)N1CCCCCC1` [Compound 56, Azepan-1-yl-[3-imidazo[1,2-a]pyrazin-3-yl-1-(2,2,2-trifluoro-ethyl)-1H-pyrazolo[4,3-c]pyridin-6-yl]-methanone], the IC50 in experiment [1] was under 100 nM; in experiment [2], under 1000 nM.
As for `CS(=O)(=O)Cn1nc(-c2cnc3c(F)cc(F)cn23)c2cnc(C(=O)N3[C@@H]4CC[C@H]3C[C@@H](O)C4)cc21` [Compound 25, [3-(6,8-Difluoro-imidazo[1,2-a]pyridin-3-yl)-1-methanesulfonylmethyl-1H-pyrazolo[4,3-c]pyridin-6-yl]-(3-endo-hydroxy-8-aza-bicyclo[3.2.1]oct-8-yl)-methanone], the IC50 in experiment [1] and in experiment [2] was under 100 nM in each case.
`O=C(c1cc2c(cn1)c(-c1cnc3c(F)cc(F)cn13)nn2CC(F)(F)F)N1CCC(O)(C(F)(F)F)CC1` [Compound 148, [3-(6,8-Difluoro-imidazo[1,2-a]pyridin-3-yl)-1-(2,2,2-trifluoro-ethyl)-1H-pyrazolo[4,3-c]pyridin-6-yl]-(4-hydroxy-4-trifluoromethyl-piperidin-1-yl)-methanone]: the IC50 in experiment [1] and in experiment [2] was under 1000 nM throughout.
On to `[2H]C1([2H])CCOCCN1C(=O)c1cc2c(cn1)c(-c1cnc3c(F)cc(F)cn13)nn2CC(F)(F)F` [Compound 190, [3-(6,8-Difluoro-imidazo[1,2-a]pyridin-3-yl)-1-(2,2,2-trifluoro-ethyl)-1H-pyrazolo[4,3-c]pyridin-6-yl]-1,4-oxazepan-5,5-dideuterio-4-yl-methanone], for which the IC50 in experiment [1] and in experiment [2] was under 100 nM in each case.
For `CCCn1nc(-c2cnc3ccc(C(N)=O)cn23)c2cnc(C(=O)N3CCCCCC3)cc21` [Compound 245, 3-[6-(Azepane-1-carbonyl)-1-propyl-1H-pyrazolo[4,3-c]pyridin-3-yl]-imidazo[1,2-a]pyridine-6-carboxylic acid amide], the IC50 in experiment [1] was under 100 nM; in experiment [2], under 1000 nM.
With `CC1(O)CCN(C(=O)c2cc3c(cn2)c(-c2coc4ccc(F)cc24)nn3CC(F)(F)F)CC1` [Compound 116, [3-(5-fluorobenzofuran-3-yl)-1-(2,2,2-trifluoroethyl)pyrazolo[4,3-c]pyridin-6-yl]-(4-hydroxy-4-methyl-1-piperidyl)methanone], the IC50 in experiment [1] and in experiment [2] was under 100 nM throughout.
Turning to `O=C(c1cc2c(cn1)c(-c1coc3ccccc13)nn2CCF)N1[C@@H]2CC[C@H]1C[C@@H](O)C2` [Compound 221, [3-Benzofuran-3-yl-1-(2-fluoro-ethyl)-1H-pyrazolo[4,3-c]pyridin-6-yl]-(3-endo-hydroxy-8-aza-bicyclo[3.2.1]oct-8-yl)-methanone], the IC50 in experiment [1] and in experiment [2] was under 100 nM throughout.
With `C[C@@]1(O)C[C@H]2C[C@@H]1CN2C(=O)c1cc2c(cn1)c(-c1coc3ccccc13)nn2CS(C)(=O)=O` (relative stereo) [Compound 31, (3-Benzofuran-3-yl-1-methanesulfonylmethyl-1H-pyrazolo[4,3-c]pyridin-6-yl)-(5-endo-hydroxy-5-exo-methyl-2-aza-bicyclo[2.2.1]hept-2-yl)-methanone], the IC50 in experiment [1] is under 100 nM; in experiment [2], under 1000 nM.
In the case of `O=C(c1cc2c(cn1)c(-c1cnn3ccncc13)nn2CC(F)(F)F)N1CCCOCC1` [Compound 249, 1,4-Oxazepan-4-yl-[3-pyrazolo[1,5-a]pyrazin-3-yl-1-(2,2,2-trifluoro-ethyl)-1H-pyrazolo[4,3-c]pyridin-6-yl]-methanone], the IC50 in experiment [1] is under 100 nM; in experiment [2], under 1000 nM.
On to `C#CC1(O)C2CCC1CN(C(=O)c1cc3c(cn1)c(-c1coc4ccccc14)nn3CC(F)(F)F)C2` (stereo not drawn) [Compound 214], for which the IC50 was under 100 nM in experiment [1] and under 1000 nM in experiment [2].
`O=C(c1cc2c(cn1)c(-n1cnc3ccc(F)cc31)nn2CC(F)(F)F)N1CCCOCC1` [Compound 252, [3-(6-fluorobenzimidazol-1-yl)-1-(2,2,2-trifluoroethyl)pyrazolo[4,3-c]pyridin-6-yl]-(1,4-oxazepan-4-yl)methanone]: the IC50 in experiment [1] and in experiment [2] was under 100 nM in each case.
`CC1(O)CCN(C(=O)c2cc3c(cn2)c(-c2cnc4c(F)cc(F)cn24)nn3CC(F)(F)F)CC1` [Compound 133, [3-(6,8-Difluoro-imidazo[1,2-a]pyridin-3-yl)-1-(2,2,2-trifluoro-ethyl)-1H-pyrazolo[4,3-c]pyridin-6-yl]-(4-hydroxy-4-methyl-piperidin-1-yl)-methanone]: the results for the IC50 in experiment [1] and in experiment [2] were under 100 nM and under 1000 nM, respectively.
The like results for `O=C(c1cc2c(cn1)c(-c1coc3ccc(F)cc13)nn2CC(F)(F)F)N1CCCC(O)CC1` (stereo not drawn) [Compound 122, [3-(5-fluorobenzofuran-3-yl)-1-(2,2,2-trifluoroethyl)pyrazolo[4,3-c]pyridin-6-yl]-(4-hydroxyazepan-1-yl)methanone] were, in that order, under 100 nM and under 100 nM.
Consider `COc1ccc2ncc(-c3nn(CC(F)(F)F)c4cc(C(=O)N5CCCCCC5)ncc34)n2c1` [Compound 59, Azepan-1-yl-[3-(6-methoxy-imidazo[1,2-a]pyridin-3-yl)-1-(2,2,2-trifluoro-ethyl)-1H-pyrazolo[4,3-c]pyridin-6-yl]-methanone], for which the IC50 in experiment [1] was under 100 nM; in experiment [2], under 1000 nM.
Take `CS(=O)(=O)Cn1nc(-c2coc3ccc(F)cc23)c2cnc(C(=O)N3CCCOCC3)cc21` [Compound 110, [3-(5-fluorobenzofuran-3-yl)-1-(methylsulfonylmethyl)pyrazolo[4,3-c]pyridin-6-yl]-(1,4-oxazepan-4-yl)methanone]: the IC50 in experiment [1] and in experiment [2] was under 100 nM in each case.

Values taken from patent US20210380606A1, “5-AZAINDAZOLE DERIVATIVES AS ADENOSINE RECEPTOR ANTAGONISTS” (Merck Patent GmbH, priority 2018, published 2021).
